Results: patent publication US20210078988A1, “MODULATORS OF INDOLEAMINE 2,3-DIOXYGENASE” (GLAXOSMITHKLINE INTELLECTUAL PROPERTY DEVELOPMENT LIMITED, priority 2017, published 2021)

Biological target: T1, indoleamine 2, 3-dioxygenase (IDO1) (Homo sapiens, UniProt P14902)
T1 construct: human peripheral blood mononuclear cells (PBMC) (PB003F; host or cells: human PBMC stimulated with IFN-gamma and LPS
Experiment: PBMC IDO1 assay (kynurenine detection via mass spectrometry)
Type: cell-based
Details: human PBMC stimulated with IFN-γ and LPS, 2 days, kynurenine by mass spectrometry; read-out: IDO1 PBMC pIC50 (converted)
How it was run: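 Human PBMCs (50,000/well) stimulated with IFN-γ 100 ng/ml and LPS 50 ng/ml were exposed to 11-point 3-fold compound dilutions for 2 days at 37 °C. Supernatant kynurenine was quantified by RapidFire MS relative to an internal standard; parallel CellTiter-Glo ATP luminescence measured cytotoxicity, with four-parameter curve fitting.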

T1 sequence (P14902 whole entry): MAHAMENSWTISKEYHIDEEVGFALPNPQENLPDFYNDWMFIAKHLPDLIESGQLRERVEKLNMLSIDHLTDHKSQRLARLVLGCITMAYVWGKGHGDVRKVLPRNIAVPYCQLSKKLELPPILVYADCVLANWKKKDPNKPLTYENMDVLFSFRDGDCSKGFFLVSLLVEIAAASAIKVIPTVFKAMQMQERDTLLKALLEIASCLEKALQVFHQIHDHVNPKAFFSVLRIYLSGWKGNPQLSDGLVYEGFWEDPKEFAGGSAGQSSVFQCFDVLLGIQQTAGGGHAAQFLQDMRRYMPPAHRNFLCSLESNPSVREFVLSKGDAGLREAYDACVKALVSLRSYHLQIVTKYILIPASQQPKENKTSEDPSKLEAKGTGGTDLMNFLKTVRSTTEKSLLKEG

Row | Compound | IC50
1 | CC(C)(C)OC(=O)N1CCC(CC(NC(=O)c2ccc(F)c(F)c2)c2ccccc2)CC1 (centres unmarked) [Example 147, tert-butyl 4-(2-(3,4-difluorobenzamido)-2-phenylethyl)piperidine-1-carboxylate] | 79.4 nM
2 | CC(C)(C)OC(=O)N1CCC(C[C@H](Nc2nc3ccc(Cl)cc3o2)C2CC2)CC1 [Example 148, (S)-tert-butyl 4-(2-((6-chlorobenzo[d]oxazol-2-yl)amino)-2-cyclopropylethyl)piperidine-1-carboxylate] | 79.4 nM
3 | CC#CCOc1ccc(C(=O)NC(CC2CCN(C(=O)OC(C)(C)C)CC2)c2ccccc2)cc1 (centres unmarked) [Example 149, tert-butyl 4-(2-(4-(but-2-yn-1-yloxy)benzamido)-2-phenylethyl)piperidine-1-carboxylate] | 79.4 nM
4 | O=C(NC(CC1CCN(C(=O)OC2CCCCC2)CC1)c1ccccc1)c1ccc(Cl)cc1 (centres unmarked) [Example 150, cyclohexyl 4-(2-(4-chlorobenzamido)-2-phenylethyl)piperidine-1-carboxylate] | 79.4 nM
5 | CC(C)(C)OC(=O)N1CCC(CC(NC(=O)c2ccc(Cl)cc2)C2CCCC2)CC1 (centres unmarked) [Example 151, tert-butyl 4-(2-(4-chlorobenzamido)-2-cyclopentylethyl)piperidine-1-carboxylate] | 79.4 nM
6 | CC(C)(C)OC(=O)N1CCC(CC(NC(=O)c2ccc(F)cc2)C2CCCCC2)CC1 (centres unmarked) [Example 152, tert-butyl 4-(2-cyclohexyl-2-(4-fluorobenzamido)ethyl)piperidine-1-carboxylate] | 79.4 nM
7 | Cc1cc(C(=O)NC(CC2CCN(C(=O)OC(C)(C)C)CC2)c2ccccc2)cs1 (centres unmarked) [Example 153, tert-butyl 4-(2-(5-methylthiophene-3-carboxamido)-2-phenylethyl)piperidine-1-carboxylate] | 79.4 nM
8 | CCCC(=O)N1CCC(CC(NC(=O)c2ccc(Cl)cc2)c2ccccc2)CC1 (centres unmarked) [Example 154, N-(2-(1-butyrylpiperidin-4-yl)-1-phenylethyl)-4-chlorobenzamide] | 79.4 nM
9 | C=CC[C@@H](CC1CCN(C(=O)OC(C)(C)C)CC1)NC(=O)c1ccc(Cl)s1 [Example 155, (S)-tert-butyl 4-(2-(5-chlorothiophene-2-carboxamido)pent-4-en-1-yl)piperidine-1-carboxylate] | 79.4 nM
10 | Cc1ccc(C(=O)NC(CC2CCN(C(=O)c3ccccc3)CC2)c2ccccc2)s1 (centres unmarked) [Example 156, N-(2-(1-benzoylpiperidin-4-yl)-1-phenylethyl)-5-methylthiophene-2-carboxamide] | 79.4 nM
11 | COc1ccc(C(=O)NC(CC2CCN(C(=O)OC(C)(C)C)CC2)c2ccccc2)cn1 (centres unmarked) [Example 157, tert-butyl 4-(2-(6-methoxynicotinamido)-2-phenylethyl)piperidine-1-carboxylate] | 100 nM
12 | CCOC(=O)N1CCC(CC(NC(=O)c2ccc(OC)nc2)C2CC2)CC1 (centres unmarked) [Example 158, ethyl 4-(2-cyclopropyl-2-(6-methoxynicotinamido)ethyl)piperidine-1-carboxylate] | 100 nM
13 | CC(C)(C)OC(=O)N1CCC(CC(NC(=O)c2ccsc2)c2ccccc2)CC1 (centres unmarked) [Example 159, tert-butyl 4-(2-phenyl-2-(thiophene-3-carboxamido)ethyl)piperidine-1-carboxylate] | 100 nM
14 | CC(C)(C)OC(=O)N1CCC(CC(NC(=O)c2ccc(F)cc2)c2ccc(OCc3ccccc3)nc2)CC1 (centres unmarked) [Example 160, tert-butyl 4-(2-(6-(benzyloxy)pyridin-3-yl)-2-(4-fluorobenzamido)ethyl)piperidine-1-carboxylate] | 100 nM
15 | COc1cc(C(=O)NC(CC2CCN(C(=O)OC(C)(C)C)CC2)c2ccccc2)ccc1Cl (centres unmarked) [Example 161, tert-butyl 4-(2-(4-chloro-3-methoxybenzamido)-2-phenylethyl)piperidine-1-carboxylate] | 100 nM
16 | CC(C)(C)OC(=O)N1CCC(CC(NC(=O)c2ccc(C#N)c(F)c2)c2ccccc2)CC1 (centres unmarked) [Example 162, tert-butyl 4-(2-(4-cyano-3-fluorobenzamido)-2-phenylethyl)piperidine-1-carboxylate] | 100 nM
17 | CC(C)CC(=O)N1CCC(CC(NC(=O)c2ccc(Cl)cc2)c2ccccc2)CC1 (centres unmarked) [Example 163, 4-chloro-N-(2-(1-(3-methylbutanoyl)piperidin-4-yl)-1-phenylethyl)benzamide] | 100 nM
18 | CC(C)(C)CC(=O)N1CCC(CC(NC(=O)c2ccc(Cl)cc2)c2ccccc2)CC1 (centres unmarked) [Example 164, 4-chloro-N-(2-(1-(3,3-dimethylbutanoyl)piperidin-4-yl)-1-phenylethyl)benzamide] | 100 nM
19 | CC(C)(C)NC(=O)N1CCC(CC(NC(=O)c2ccc(Cl)cc2)c2ccccc2)CC1 (centres unmarked) [Example 165, N-(tert-butyl)-4-(2-(4-chlorobenzamido)-2-phenylethyl)piperidine-1-carboxamide] | 100 nM
20 | CC(C)CS(=O)(=O)N1CCC(CC(NC(=O)c2ccc(Cl)cc2)c2ccccc2)CC1 (centres unmarked) [Example 166, 4-chloro-N-(2-(1-(isobutylsulfonyl)piperidin-4-yl)-1-phenylethyl)benzamide] | 100 nM
21 | CC#CCOc1ccc(C(=O)NC(CC2CCN(C(=O)OC(C)(C)C)CC2)c2ccccc2)cc1F (centres unmarked) [Example 167, tert-butyl 4-(2-(4-(but-2-yn-1-yloxy)-3-fluorobenzamido)-2-phenylethyl)piperidine-1-carboxylate] | 100 nM
22 | CC(C)(C)OC(=O)N1CCC(CC(NC(=O)c2cc(Cl)cs2)c2ccccc2)CC1 (centres unmarked) [Example 168, tert-butyl 4-(2-(4-chlorothiophene-2-carboxamido)-2-phenylethyl)piperidine-1-carboxylate] | 100 nM
23 | CCC(CC)c1nc(C(CC2CCN(C(=O)OC(C)(C)C)CC2)NC(=O)c2ccc(F)cc2)no1 (centres unmarked) [Example 169, tert-butyl 4-(2-(4-fluorobenzamido)-2-(5-(pentan-3-yl)-1,2,4-oxadiazol-3-yl)ethyl)piperidine-1-carboxylate] | 100 nM
24 | CC(C)(C)OC(=O)N1CCC(C[C@H](Nc2ncc(-c3ccccc3)o2)C2CC2)CC1 [Example 170, (S)-tert-butyl 4-(2-cyclopropyl-2-((5-phenyloxazol-2-yl)amino)ethyl)piperidine-1-carboxylate] | 100 nM
25 | CCCNc1nnc(C(CC2CCN(C(=O)OC(C)(C)C)CC2)NC(=O)c2ccc(Cl)s2)o1 (centres unmarked) [Example 171, tert-butyl 4-(2-(5-chlorothiophene-2-carboxamido)-2-(5-(propylamino)-1,3,4-oxadiazol-2-yl)ethyl)piperidine-1-carboxylate] | 100 nM

The remaining lines, values ahead:

Row | IC50 | Compound
26 | 126 nM | COC(=O)N1CCC(CC(NC(=O)c2ccc(F)cc2)c2ccccc2)CC1 (centres unmarked) [Example 173, methyl 4-(2-(4-fluorobenzamido)-2-phenylethyl)piperidine-1-carboxylate]
27 | 126 nM | Cc1ccc(C(CC2CCN(C(=O)OC(C)(C)C)CC2)NC(=O)c2ccc(F)cc2)cn1 (centres unmarked) [Example 174, tert-butyl 4-(2-(4-fluorobenzamido)-2-(6-methylpyridin-3-yl)ethyl)piperidine-1-carboxylate]
28 | 126 nM | CC(C)(C)OC(=O)N1CCC(CC(NC(=O)c2ccc3c(c2)OCO3)c2ccccc2)CC1 (centres unmarked) [Example 175, tert-butyl 4-(2-(benzo[d][1,3]dioxole-5-carboxamido)-2-phenylethyl)piperidine-1-carboxylate]
29 | 126 nM | CC(C)(C)OC(=O)N1CCC(CC(NC(=O)c2ccc(F)cc2)c2ccc(=O)n(Cc3ccccc3)c2)CC1 (centres unmarked) [Example 176, tert-butyl 4-(2-(1-benzyl-6-oxo-1,6-dihydropyridin-3-yl)-2-(4-fluorobenzamido)ethyl)piperidine-1-carboxylate]
30 | 126 nM | CCOC(=O)N1CCC(C[C@@H](NC(=O)c2ccc(Cl)s2)C2CC2)CC1 [Example 177, (R)-ethyl 4-(2-(5-chlorothiophene-2-carboxamido)-2-cyclopropylethyl)piperdine-1-carboxylate]
31 | 126 nM | CSc1ccc(C(=O)NC(CC2CCN(C(=O)OC(C)(C)C)CC2)c2ccccc2)cc1 (centres unmarked) [Example 178, tert-butyl 4-(2-(4-(methylthio)benzamido)-2-phenylethyl)piperidine-1-carboxylate]
32 | 126 nM | Cc1csc(C(=O)NC(CC2CCN(C(=O)OC(C)(C)C)CC2)c2ccccc2)c1 (centres unmarked) [Example 179, tert-butyl 4-(2-(4-methylthiophene-2-carboxamido)-2-phenylethyl)piperidine-1-carboxylate]
33 | 126 nM | C=Cc1ccc(C(=O)NC(CC2CCN(C(=O)OC(C)(C)C)CC2)c2ccccc2)s1 (centres unmarked) [Example 180, tert-butyl 4-(2-phenyl-2-(5-vinylthiophene-2-carboxamido)ethyl)piperidine-1-carboxylate]
34 | 158 nM | CC(C)(C)OC(=O)N1CCC(CC(NC(=O)c2cccc3cc[nH]c23)c2ccccc2)CC1 (centres unmarked) [Example 181, tert-butyl 4-(2-(1H-indole-7-carboxamido)-2-phenylethyl)piperidine-1-carboxylate]
35 | 158 nM | CC(C)(C)OC(=O)N1CCC(CC(NC(=O)c2cc3ccccc3s2)c2ccccc2)CC1 (centres unmarked) [Example 182, tert-butyl 4-(2-(benzo[b]thiophene-2-carboxamido)-2-phenylethyl)piperidine-1-carboxylate]
36 | 158 nM | COc1ccc([C@@H](CC2CCN(C(=O)OC(C)(C)C)CC2)NC(=O)c2ccc(F)cc2)cn1 [Example 183, (R)-tert-butyl 4-(2-(4-fluorobenzamido)-2-(6-methoxypyridin-3-yl)ethyl)piperidine-1-carboxylate]
37 | 158 nM | CC(C)NC(=O)N1CCC(CC(NC(=O)c2ccc(Cl)cc2)c2ccccc2)CC1 (centres unmarked) [Example 184, 4-(2-(4-chlorobenzamido)-2-phenylethyl)-N-isopropylpiperidine-1-carboxamide]
38 | 158 nM | O=C(NC(CC1CCN(C(=O)OC2COC2)CC1)c1ccccc1)c1ccc(Cl)cc1 (centres unmarked) [Example 185, oxetan-3-yl 4-(2-(4-chlorobenzamido)-2-phenylethyl)piperidine-1-carboxylate]
